Measured values from US11180474B2 (BRISTOL-MYERS SQUIBB COMPANY, priority 2016, dated 2021).

Target: T1, human TLR9 (Homo sapiens, UniProt Q9NR96)
T1 construct: host or cells: HEK-Blue cells
T1 sequence (Q9NR96 26-1032): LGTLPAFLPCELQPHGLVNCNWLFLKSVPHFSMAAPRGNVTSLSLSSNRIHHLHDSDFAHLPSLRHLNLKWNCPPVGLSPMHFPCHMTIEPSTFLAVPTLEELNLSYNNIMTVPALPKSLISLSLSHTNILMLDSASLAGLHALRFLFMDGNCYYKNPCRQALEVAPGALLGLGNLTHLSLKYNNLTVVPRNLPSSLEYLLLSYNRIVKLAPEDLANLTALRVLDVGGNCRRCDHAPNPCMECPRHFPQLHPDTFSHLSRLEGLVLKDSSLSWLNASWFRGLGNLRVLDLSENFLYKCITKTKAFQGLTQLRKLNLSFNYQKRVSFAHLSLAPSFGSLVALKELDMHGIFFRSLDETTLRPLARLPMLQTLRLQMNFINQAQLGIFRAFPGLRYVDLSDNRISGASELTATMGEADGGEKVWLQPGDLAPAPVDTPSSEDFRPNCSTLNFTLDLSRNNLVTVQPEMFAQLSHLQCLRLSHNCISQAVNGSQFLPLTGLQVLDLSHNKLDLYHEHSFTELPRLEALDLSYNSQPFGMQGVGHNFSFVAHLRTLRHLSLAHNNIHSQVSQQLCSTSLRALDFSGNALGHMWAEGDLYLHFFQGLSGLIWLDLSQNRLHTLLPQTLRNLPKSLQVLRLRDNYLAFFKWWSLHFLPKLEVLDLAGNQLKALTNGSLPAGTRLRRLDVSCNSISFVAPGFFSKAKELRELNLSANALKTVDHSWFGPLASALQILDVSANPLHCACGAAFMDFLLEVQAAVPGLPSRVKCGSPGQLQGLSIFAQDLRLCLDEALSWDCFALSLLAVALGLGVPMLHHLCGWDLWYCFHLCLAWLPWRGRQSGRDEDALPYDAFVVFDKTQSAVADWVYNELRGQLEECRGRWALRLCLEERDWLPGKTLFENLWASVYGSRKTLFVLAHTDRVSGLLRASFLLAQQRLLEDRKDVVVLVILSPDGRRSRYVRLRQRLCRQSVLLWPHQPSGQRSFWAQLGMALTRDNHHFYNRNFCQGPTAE
Assay: TLR9 inhibition reporter assay (HEK-Blue cells, SEAP reporter, ODN2006 stimulation)
Type: cell-based
Conditions: HEK-Blue cells overexpressing human TLR9, ODN2006 5 nM
Summary of the method: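 Screening used HEK-Blue cells overexpressing one human TLR (7, 8 or 9) and an IFN-β minimal promoter–NF-κB/AP-1 SEAP construct. Stimulation lasted 22 h at 37 °C with receptor-specific agonist: gardiquimod, R848 or ODN2006 at 7.5 μM, 15.9 μM and 5 nM.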

| Structure (SMILES) | IC50 |
| --- | --- |
| COc1ccc(-c2[nH]c3ccc(C4CCN(C5CCN(Cc6cccn6C)CC5)CC4)cc3c2C)cc1OC [Example 78, 2-(3,4-dimethoxyphenyl)-3-methyl-5-(1′-((1-methyl-1H-pyrrol-2-yl)methyl)-[1,4′-bipiperidin]-4-yl)-1H-indole] | 130 nM |
| COc1ccc(-c2[nH]c3ccc(C4CCN(C5CCN(CC(O)CO)CC5)CC4)cc3c2C)cc1OC (centres unmarked) [Example 52, 3-(4-(2-(3,4-dimethoxyphenyl)-3-methyl-1H-indol-5-yl)-[1,4′-bipiperidin]-1′-yl)propane-1,2-diol] | 268 nM |
| COc1ccc(-c2[nH]c3ccc(C4CCN(C5CCCN(C)CC5)CC4)cc3c2C)cc1OC (centres unmarked) [Example 91, 2-(3,4-dimethoxyphenyl)-3-methyl-5-(1-(1-methylazepan-4-yl)piperidin-4-yl)-1H-indole] | 313 nM |
| COc1ccc(-c2[nH]c3ccc(C4CCN(C(=O)CN5CCCN(C)CC5)CC4)cc3c2C)cc1OC [Example 410, 1-(4-(2-(3,4-dimethoxyphenyl)-3-methyl-1H-indol-5-yl)piperidin-1-yl)-2-(4-methyl-1,4-diazepan-1-yl)ethan-1-one] | 5250 nM |
| COc1ccc(-c2[nH]c3ccc(C4CCN(C(C)CO)CC4)cc3c2C)cc1OC (centres unmarked) [Example 43, 2-(4-(2-(3,4-dimethoxyphenyl)-3-methyl-1H-indol-5-yl)piperidin-1-yl)propan-1-ol] | 2760 nM |
| COc1ccc(-c2[nH]c3ccc(C4CCN(C5CCCN(C6CCCC6)CC5)CC4)cc3c2C)cc1OC (centres unmarked) [Example 93, 5-(1-(1-cyclopentylazepan-4-yl)piperidin-4-yl)-2-(3,4-dimethoxyphenyl)-3-methyl-1H-indole] | 237 nM |
| COc1ccc(-c2[nH]c3ccc(C4CCN(C5CCN(CC6CCCC6)CC5)CC4)cc3c2C)cc1OC [Example 65, 5-(1′-(cyclopentylmethyl)-[1,4′-bipiperidin]-4-yl)-2-(3,4-dimethoxyphenyl)-3-methyl-1H-indole] | 112 nM |
| COc1ccc(-c2[nH]c3ccc(C4CCN(C5CCN(CC6CC6)CC5)CC4)cc3c2C)cc1OC [Example 3, 5-(1′-(cyclopropylmethyl)-[1,4′-bipiperidin]-4-yl)-2-(3,4-dimethoxyphenyl)-3-methyl-1H-indole] | 117 nM |
| CCN(CC)C(=O)C1CCCN(CC(=O)N2CCC(c3ccc4[nH]c(-c5ccc(OC)c(OC)c5)c(CC(F)(F)F)c4c3)CC2)C1 (centres unmarked) [Example 420, 1-(2-(4-(2-(3,4-dimethoxyphenyl)-3-(2,2,2-trifluoroethyl)-1H-indol-5-yl)piperidin-1-yl)-2-oxoethyl)-N,N-diethylpiperidine-3-carboxamide] | 279 nM |
| COc1ccc(-c2[nH]c3ccc(C4CCN(C5CCN(CCC(F)(F)F)CC5)CC4)cc3c2C)cc1OC [Example 50, 2-(3,4-dimethoxyphenyl)-3-methyl-5-(1′-(3,3,3-trifluoropropyl)-[1,4′-bipiperidin]-4-yl)-1H-indole] | 442 nM |
| COc1ccc(-c2[nH]c3ccc(C4CCN(C5CCN(C6CCCCC6)CC5)CC4)cc3c2C)cc1OC [Example 68, 5-(1′-cyclohexyl-[1,4′-bipiperidin]-4-yl)-2-(3,4-dimethoxyphenyl)-3-methyl-1H-indole] | 88 nM |
